“Also recorded” adds a separate entry of the source. Counter-ions that a name gives are not always drawn. Like-named read-outs stand apart in the source and are kept apart here.
Tests used:
[1] = system: HCV RNA replication (full-length HCV RNA genome harboring a Luciferase reporter gene); assay: Luciferase reporter-linked HCV replication assay in Huh7.5 cells; format: cell-based, Hepatitis C Virus; details: for activity at 5 µM / activity at 10 µM: Hepatitis C virus, Huh7.5
Description: For example, HCV replication assays employing a luciferase reporter-linked HCV genome in the presence of various combinations of clemizole and an NS3 protease inhibitor (SCH503034) are shown in FIGS. 1A and 1B. In such assays, luciferase activity is directly proportional to HCV RNA genome replication. […] The results can be plotted on a linear or log scale as a function of drug concentrations to generate replication inhibition curves.
Luciferase assays were performed at 72 hr.
Medium was changed daily.
The experiment was repeated four times, each time with triplicates.

[2] = Alamar Blue-based viability assay; details: human
Description: (§1) The in vivo antiviral effect on HCV RNA replication of the inhibitory compounds identified in the above screen was measured. Following electroporation with a full-length HCV RNA genome harboring a Luciferase reporter gene^28, Huh7.5 cells were grown in the presence of increasing concentrations of these compounds. Luciferase assays were performed at 72 hr. In parallel, the viability of cells in the presence of the compounds was assessed by an Alamar Blue-based assay.
(§2) Following 72 hrs of treatment, cells were incubated for 3 hrs at 37° C. in the presence of 10% Alamar Blue reagent (TREK Diagnostic Systems). Plates were then scanned and fluorescence was detected by using FLEXstation II 384 (Molecular Devices, Inc.).

[3] = target: HuR binding to the 3′ terminus of the negative HCV RNA strand (Homo sapiens, UniProt Q15717); assay: Specificity: HuR binding to the 3′ terminus of the negative HCV RNA strand; details: hits at 0.1 mM
Description: Specificity of hits identified in the small molecule screen: To determine the specificity of the hits identified in the small molecule screen, the HuR protein (one of the human RNA binding protein used to validate our RNA binding assay) was selected. […] Binding of HuR to the consensus 4A RNA sequence was tested in the presence of the inhibitory molecules shown to inhibit RNA binding by NS4B. […] Similarly, 0.1 mM of the identified compounds didn't have an inhibitory effect on binding of HuR to the 3′ terminus of the negative HCV RNA strand.

[4] = target: HuR binding to the consensus 4A RNA sequence (Homo sapiens, UniProt Q15717); assay: Specificity: HuR binding to 4A RNA by microfluidics; details: hits at 0.1 mM
Description: Next a standard 25 μL TNT T7 coupled wheat germ extract mixture (Promega) was prepared and spiked with 1 μL tRNALys-bodipy-fl (Promega) and 2 μL of plasmid DNA template coding for the appropriate protein (HuR, HuD or Gus). The mixture was immediately loaded into the device and flushed for 5 min, after which the chamber valves were opened allowing for dead end filling of the chambers with wheat germ extract. The chamber valves were again closed and flushing continued for an additional 5 min. Next the segregation valves separating each unit cell were closed, followed by opening of the chamber valves allowing for equilibration of the unit cell by diffusion. The entire device was heated to 30° C. on a temperature controlled microscope stage and incubated for up to 90 min to complete protein synthesis, binding of protein to the surface bound biotinylated-5-histidine antibody, solvation of target RNA, and equilibration of proteins and target RNA. […] Radial closure prevents solvent pockets from forming between the two interfaces and effectively creates zero dead volume while preserving the equilibrium concentrations of the molecular interactions to be detected. This was followed by a 5 min PBS wash to remove untapped unbound material. The device was then imaged on a modified array WoRxe (AppliedPrecision) microarray scanner to detect protein synthesis and the trapped molecules. […]

W55R mutant J6/JFH RNA = assay: Replication assays with the clemizole-resistant W55R mutant; format: cell-based, Hepatitis C Virus
HCV (genotype 4) = assay: Treatment of patients chronically infected with HCV, serum HCV viral load; format: in vivo, human
Description: Three patients chronically-infected with HCV (genotype 4) were treated in accordance with an embodiment of the method of the invention. All were male and had baseline ALT elevations and significant HCV viral loads ranging from 290,000-730,000 IU/ml.
After the first four weeks of clemizole monotherapy, pegylated interferon was added.

[5] = guinea pig; cited from earlier work
[6] = target: NS4B binding to the 3′ terminus of the HCV negative strand RNA (Hepatitis C virus genotype 1a, UniProt P27958); assay: Microfluidic (MITOMI) in vitro RNA binding assay of NS4B
[7] = human, in vivo; cited from earlier work
R214Q mutant HCV RNA = assay: Luciferase reporter linked replication assay with the clemizole-resistant R214Q mutant; format: cell-based; details: Hepatitis C virus, read-out: EC50 on the R214Q mutant
[8] = system: infectious HCV clone (J6/JFH); format: cell-based, Hepatitis C Virus; details: FIG. 15, 72 hours
[9] = cited from earlier work
[10] = target: T1, W55R NS4B mutant binding to HCV RNA (Hepatitis C virus genotype 1a, UniProt P27958, A1893V/D1840G/F1898S/L1839I/R1905H/S1900A/W1766R); assay: Microfluidic in vitro RNA binding assay of W55R NS4B mutant; details: in the presence of 10 nM clemizole
T1 construct: made in house; host or cells: coupled transcription/translation rabbit reticulocyte system (Promega) with canine microsomal membranes

Huh7.5 cells = assay: Alamar Blue-based viability assay; details: HCV-infected Huh7.5 cells, FIG. 15
Description: as §1, §2

[11] = read-out: AV (HCV RNA replication, percent of normal activity remaining)
[12] = read-out: AV score (binned residual HCV replication)
[13] = 3 patients, clemizole 100 mg po BID monotherapy
[14] = 40 to 160 mg/day, 1 to 12 weeks

Brc1ccc(Cn2cnc3ccccc32)cc1
activity at 5 µM [1, 11]: 23%
activity at 5 µM [1, 12]: 10 to 30%
activity at 10 µM [1, 11]: 8%
activity at 10 µM [1, 12]: 10 to 30%

Cc1cc2ncn(Cc3ccc(Cl)cc3Cl)c2cc1C
activity at 5 µM [1, 11]: 30%
activity at 5 µM [1, 12]: 10 to 30%
activity at 10 µM [1, 11]: 8%
activity at 10 µM [1, 12]: 10 to 30%

CC(C)(C)c1ccc(Cn2cnc3ccccc32)cc1
activity at 5 µM [1, 11]: 30%
activity at 5 µM [1, 12]: 10 to 30%
activity at 10 µM [1, 11]: 12%
activity at 10 µM [1, 12]: 10 to 30%

Clc1ccc(Cn2c(CN3CCCC3)nc3ccccc32)cc1 [drawing 415]
activity at 5 µM [1, 11]: 62%
activity at 5 µM [1, 12]: 60 to 90%
activity at 10 µM [1, 11]: 37%
activity at 10 µM [1, 12]: 30 to 60%
viability at 72 h, 5 µM [2]: 107%
viability at 72 h, 10 µM [2]: 93%

Cc1nc2ccccc2n1Cc1ccc(Br)cc1
activity at 5 µM [1, 11]: 3%
activity at 5 µM [1, 12]: 10 to 30%
activity at 10 µM [1, 11]: 2%
activity at 10 µM [1, 12]: 10 to 30%

O=C(O)C1=CC(=C(c2ccc(O)c(C(=O)O)c2)c2ccc(O)c(C(=O)O)c2)C=CC1=O [ATA, Aurintricarboxilic acid]
effect on binding of HuR to the 3′ terminus of the negative HCV RNA strand [3]: significantly inhibited
effect on binding of HuR to 4A RNA [4]: significantly inhibited; also recorded: affected

Cc1nc2cc(Cl)ccc2n1Cc1ccccc1
activity at 5 µM [1, 11]: 87%
activity at 5 µM [1, 12]: 60 to 90%
activity at 10 µM [1, 11]: 60%
activity at 10 µM [1, 12]: 60 to 90%

COc1ccc(Cn2cnc3ccccc32)cc1
activity at 5 µM [1, 11]: 70%
activity at 5 µM [1, 12]: 60 to 90%
activity at 10 µM [1, 11]: 58%
activity at 10 µM [1, 12]: 30 to 60%

Clc1ccc(Cn2c(CN3CCCC3)nc3ccccc32)cc1 [clemizole]
replication of W55R mutant in presence of clemizole (W55R mutant J6/JFH RNA; 10 μM clemizole, whole cell RNA (colonies) or in vitro-transcribed luciferase RNA): unaffected
EC50 (W55R mutant J6/JFH RNA; Hepatitis C virus, read-out: EC50 on the W55R mutant J6/JFH RNA): ~18 µM
effect of adding clemizole to NS3 protease inhibitor SCH503034 on HCV replication ([1]; SCH503034 1-5 micromolar, 72 hours): increase the inhibition of HCV replication in a dose-dependent manner by up to several logs
effect on binding of HuR to 4A RNA [4]: No inhibitory effect
HCV viral load at week 2 (HCV (genotype 4); [13]): drops in HCV viral load
HCV viral load at week 4 (HCV (genotype 4); [13]): nearly at or below the limit of HCV detection; also recorded: completely, or nearly, undetectable
HCV viral load after 8 weeks (HCV (genotype 4); 4 weeks clemizole monotherapy plus 4 weeks clemizole with standard dose pegylated interferon): below the limit of detection
prevention of histamine-induced asthma [5]: superior to atropine and other antihistamines in preventing histamine-induced asthma
IC50 [6]: ~0.024 µM
reduction of RNA binding of wild type NS4B ([6]; in the presence of 10 nM clemizole): ~2 fold
drowsiness, share of the patients treated (Zierz and Greither) [7]: 1.3%
EC50 (R214Q mutant HCV RNA): 40.3 µM
HCV replication levels by real-time PCR [8]: inhibits HCV replication
patients reporting excellent relief of itching [9, 14]: 66%
patients reporting good relief of itching [9, 14]: 23%
patients with mild side effects (drowsiness most common) ([9]; human, in vivo): 4 patients
reduction of RNA binding of W55R NS4B mutant [10]: ~2 fold
toxicity to the cell in real-time PCR experiment (Huh7.5 cells): no measurable toxicity to the cell

Cc1ccc(Cn2cnc3ccccc32)cc1
activity at 5 µM [1, 11]: 49%
activity at 5 µM [1, 12]: 30 to 60%
activity at 10 µM [1, 11]: 23%
activity at 10 µM [1, 12]: 10 to 30%

Clc1ccc(Cn2c(CN3CCCC3)nc3ccccc32)cc1 [Clemizole hydrochloride, clemizole hydrochloride, reference compound]
decrease in viral replication ([1]; 20 μM, 72 hr): tenfold

COC(=O)c1ccc(Cn2cnc3ccccc32)cc1
activity at 5 µM [1, 11]: 74%
activity at 5 µM [1, 12]: 60 to 90%
activity at 10 µM [1, 11]: 54%
activity at 10 µM [1, 12]: 30 to 60%

OCc1nc2ccccc2n1Cc1ccc(Br)cc1
activity at 5 µM [1, 12]: 30 to 60%
activity at 10 µM [1, 11]: 28%
activity at 10 µM [1, 12]: 10 to 30%

Reference: patent US8895598B2, “Methods of treating a flaviviridae family viral infection, compositions for treating a flaviviridae family viral infection, and screening assays for identifying compositions for treating a flaviviridae family viral infection” (priority 2007, dated 2014)
